# ChEMBL document CHEMBL3885881, “DrugMatrix”
# Organism: Rattus norvegicus
# Assay: DrugMatrix - Regimen: Daily Repeat
# Type: toxicity, organism-based, Sprague-Dawley
# Parameters: regimen Daily Repeat, gender Male, age 6-8 weeks
# Details: in vivo, po, route oral GAVAGE, vehicle 100 % WATER; for ABSOLUTE BASOPHIL / ABSOLUTE EOSINOPHIL / ABSOLUTE LYMPHOCYTE / ABSOLUTE MONOCYTE / ABSOLUTE SEGMENTED NEUTROPHIL / BASOPHIL / EOSINOPHIL / ERYTHROCYTE COUNT / HEMATOCRIT / HEMOGLOBIN / LEUKOCYTE COUNT / LYMPHOCYTE / MEAN CORPUSCULAR HEMOGLOBIN / MEAN CORPUSCULAR HEMOGLOBIN CONCENTRATION / MEAN CORPUSCULAR VOLUME / MONOCYTE / NEUTROPHIL / NUCLEATED RED BLOOD CELLS / PLATELET COUNT: tissue Blood; for ALANINE AMINOTRANSFERASE / ALBUMIN / ALKALINE PHOSPHATASE / ASPARTATE AMINOTRANSFERASE / BLOOD UREA NITROGEN / CARBON DIOXIDE / CHLORIDE / CHOLESTEROL / CREATINE PHOSPHOKINASE / CREATININE / GLUCOSE / LACTATE DEHYDROGENASE / LIPASE / PHOSPHORUS / POTASSIUM / SODIUM / TOTAL BILIRUBIN / TOTAL PROTEIN / URIC ACID: tissue Plasma
# [1] = 0 mg/kg, 72 h, dose level Control, time 3 day
# [2] = 0 mg/kg, 120 h, dose level Control, time 5 day
# [3] = 10 mg/kg, 72 h, dose level Low, time 3 day
smiles,measurement,setting,value
CC(C)(C)NC[C@H](O)COc1nsnc1N1CCOCC1 [TIMOLOL],ABSOLUTE BASOPHIL,[1],0 CELLS/uL
same,ABSOLUTE EOSINOPHIL,[1],0 CELLS/uL
same,ABSOLUTE LYMPHOCYTE,[1],8482.5 CELLS/uL
same,ABSOLUTE MONOCYTE,[1],63.83 CELLS/uL
same,ABSOLUTE SEGMENTED NEUTROPHIL,[1],887 CELLS/uL
same,BASOPHIL,[1],0%
same,EOSINOPHIL,[1],0%
same,ERYTHROCYTE COUNT,[1],5.49 x10E6/uL
same,HEMATOCRIT,[1],34.5%
same,HEMOGLOBIN,[1],13.33 G/DL
same,LEUKOCYTE COUNT,[1],9.43 x10E3/uL
same,LYMPHOCYTE,[1],90.17%
same,MEAN CORPUSCULAR HEMOGLOBIN,[1],24.3 pg
same,MEAN CORPUSCULAR HEMOGLOBIN CONCENTRATION,[1],38.63 G/DL
same,MEAN CORPUSCULAR VOLUME,[1],62.88 fL
same,MONOCYTE,[1],0.67%
same,NEUTROPHIL,[1],9.17%
same,NUCLEATED RED BLOOD CELLS,[1],0.67 /100WBC
same,PLATELET COUNT,[1],1022.83 x10E3/uL
same,ALANINE AMINOTRANSFERASE,[1],50.5 u/L
same,ALBUMIN,[1],4.08 G/DL
same,ALKALINE PHOSPHATASE,[1],368.33 u/L
same,ASPARTATE AMINOTRANSFERASE,[1],87.5 u/L
same,BLOOD UREA NITROGEN,[1],12.83 mg/dL
same,CARBON DIOXIDE,[1],32.83 mmol/L
same,CHLORIDE,[1],99.67 MEQ/L
same,CHOLESTEROL,[1],79.67 mg/dL
same,CREATINE PHOSPHOKINASE,[1],585 u/L
same,CREATININE,[1],0.22 mg/dL
same,GLUCOSE,[1],135.67 mg/dL
same,LACTATE DEHYDROGENASE,[1],171 u/L
same,LIPASE,[1],9.5 u/L
same,PHOSPHORUS,[1],11.18 mg/dL
same,POTASSIUM,[1],6.25 MEQ/L
same,SODIUM,[1],144.87 MEQ/L
same,TOTAL BILIRUBIN,[1],0.2 mg/dL
same,TOTAL PROTEIN,[1],6.08 G/DL
same,URIC ACID,[1],0.65 mg/dL
same,ABSOLUTE BASOPHIL,[2],0 CELLS/uL
same,ABSOLUTE EOSINOPHIL,[2],14.5 CELLS/uL
same,ABSOLUTE LYMPHOCYTE,[2],7596.17 CELLS/uL
same,ABSOLUTE MONOCYTE,[2],69.67 CELLS/uL
same,ABSOLUTE SEGMENTED NEUTROPHIL,[2],503 CELLS/uL
same,BASOPHIL,[2],0%
same,EOSINOPHIL,[2],0.17%
same,ERYTHROCYTE COUNT,[2],5.49 x10E6/uL
same,HEMATOCRIT,[2],34.72%
same,HEMOGLOBIN,[2],13.47 G/DL
same,LEUKOCYTE COUNT,[2],8.18 x10E3/uL
same,LYMPHOCYTE,[2],92.17%
same,MEAN CORPUSCULAR HEMOGLOBIN,[2],24.57 pg
same,MEAN CORPUSCULAR HEMOGLOBIN CONCENTRATION,[2],38.82 G/DL
same,MEAN CORPUSCULAR VOLUME,[2],63.3 fL
same,MONOCYTE,[2],1%
same,NEUTROPHIL,[2],6.67%
same,NUCLEATED RED BLOOD CELLS,[2],0 /100WBC
same,PLATELET COUNT,[2],1141 x10E3/uL
same,ALANINE AMINOTRANSFERASE,[2],48.33 u/L
same,ALBUMIN,[2],4.07 G/DL
same,ALKALINE PHOSPHATASE,[2],395.67 u/L
same,ASPARTATE AMINOTRANSFERASE,[2],85.67 u/L
same,BLOOD UREA NITROGEN,[2],15.83 mg/dL
same,CARBON DIOXIDE,[2],31.33 mmol/L
same,CHLORIDE,[2],100.83 MEQ/L
same,CHOLESTEROL,[2],62.33 mg/dL
same,CREATINE PHOSPHOKINASE,[2],248.33 u/L
same,CREATININE,[2],0.2 mg/dL
same,GLUCOSE,[2],135.67 mg/dL
same,LACTATE DEHYDROGENASE,[2],141.33 u/L
same,LIPASE,[2],9.5 u/L
same,PHOSPHORUS,[2],10.73 mg/dL
same,POTASSIUM,[2],6.07 MEQ/L
same,SODIUM,[2],145.35 MEQ/L
same,TOTAL BILIRUBIN,[2],0.22 mg/dL
same,TOTAL PROTEIN,[2],6.12 G/DL
same,URIC ACID,[2],0.63 mg/dL
same,ABSOLUTE BASOPHIL,[3],0 CELLS/uL
same,ABSOLUTE EOSINOPHIL,[3],0 CELLS/uL
same,ABSOLUTE LYMPHOCYTE,[3],11252 CELLS/uL
same,ABSOLUTE MONOCYTE,[3],71.67 CELLS/uL
same,ABSOLUTE SEGMENTED NEUTROPHIL,[3],843 CELLS/uL
same,BASOPHIL,[3],0%
same,EOSINOPHIL,[3],0%
same,ERYTHROCYTE COUNT,[3],5.24 x10E6/uL
same,HEMATOCRIT,[3],32.97%
same,HEMOGLOBIN,[3],12.83 G/DL
same,LEUKOCYTE COUNT,[3],12.17 x10E3/uL
same,LYMPHOCYTE,[3],92.33%
same,MEAN CORPUSCULAR HEMOGLOBIN,[3],24.5 pg
same,MEAN CORPUSCULAR HEMOGLOBIN CONCENTRATION,[3],38.93 G/DL
same,MEAN CORPUSCULAR VOLUME,[3],62.97 fL
same,MONOCYTE,[3],0.67%
same,NEUTROPHIL,[3],7%
same,NUCLEATED RED BLOOD CELLS,[3],0 /100WBC
same,PLATELET COUNT,[3],939 x10E3/uL
same,ALANINE AMINOTRANSFERASE,[3],57 u/L
same,ALBUMIN,[3],4.03 G/DL
same,ALKALINE PHOSPHATASE,[3],444 u/L
same,ASPARTATE AMINOTRANSFERASE,[3],84.67 u/L
same,BLOOD UREA NITROGEN,[3],14.67 mg/dL
same,CARBON DIOXIDE,[3],33 mmol/L
same,CHLORIDE,[3],100 MEQ/L
same,CHOLESTEROL,[3],81.67 mg/dL
same,CREATINE PHOSPHOKINASE,[3],370 u/L
same,CREATININE,[3],0.37 mg/dL
same,GLUCOSE,[3],138.33 mg/dL
same,LACTATE DEHYDROGENASE,[3],111.33 u/L
same,LIPASE,[3],10.67 u/L
same,PHOSPHORUS,[3],11.57 mg/dL
same,POTASSIUM,[3],6.01 MEQ/L
same,SODIUM,[3],145.4 MEQ/L
same,TOTAL BILIRUBIN,[3],0.17 mg/dL
same,TOTAL PROTEIN,[3],5.77 G/DL
same,URIC ACID,[3],0.6 mg/dL
